# Results as given in patent US7776917B2, “Non-standard amino acid conjugates of amphetamine and processes for making and using the same” (priority 2006, dated 2010).
# Read-outs that look alike come from different tables or passages of the source.
# Key:
# [1] = Intranasal PK study d-amphetamine, hArg-Amp, Orn-Amp (Example 10); settings: […] equivalent, n=5, d-amphetamine in plasma, given in minutes
# [2] = Intravenous PK study d-amphetamine, hArg-Amp, Orn-Amp (Example 11); settings: […] equivalent, n=5, d-amphetamine in plasma
# [3] = oral; hArg-Amp = 100%
# [4] = Parenteral (intranasal, intravenous) administration of hArg-Amp, release of amphetamine (Example 1); settings: parenteral routes (intranasal, intravenous)
# [5] = Oral PK study Lys-Amp, hArg-Amp, Orn-Amp, Cit-Amp (Example 9); settings: in words
# [6] = Average results of 4 oral PK studies, Lys-Amp vs hArg-Amp (Example 7); settings: average of 4 oral studies, n=20; Lys-Amp = 100%
compound,measurement,setting,value
"C[C@H](N)Cc1ccccc1 [d-amp, d-amphetamine]",Tmax,[1],15 m
same,Tmax,[2],15 m
"C[C@@H](Cc1ccccc1)NC(=O)[C@@H](N)CCCCN=C(N)N.Cl.Cl [hArg-Amp, l-homoarginine-d-amphetamine Dihydrochloride]",% Tmax,[3],100%
same,release of amphetamine,[4],< 50%
l-citrulline-d-amphetamine hydrochloride [Cit-Amp],Tmax compared to Lys-Amp,[5],significantly shifted the Tmax
l-lysine-d-amphetamine [Lys-Amp],% Tmax,[6],100%
